Experimental data: patent publication US11717536B2, “Treatment for periodontitis” (THE UNIVERSITY OF MELBOURNE, priority 2017, dated 2023)
Several values for one entry are separate records, joined by “and”; a condition that tells them apart may be missing. Equal entries are not always repeated. Marks after values point to notes of the source that are not given here.

Key:
[1] = tested on: Actinomyces naeslundii (NCTC 10301); test: Six species polymicrobial biofilm in constant-depth film fermenter, species composition: A. naeslundii; type: cell-based
Experimental: (§1) To model supragingival plaque six representative oral bacterial species, Streptococcus sanguinis (NCTC 7863), Streptococcus mutans Ingbritt, Actinomyces naeslundii (NCTC 10301), Veillonella parvula (ATCC 17745), Lactobacillus casei (NCDO 161) and Fusobacterium nucleatum (ATCC 10953) (Table 5) were cultured as a polymicrobial biofilm on a human enamel substratum in a constant-depth film fermenter (CDFF; Cardiff University, UK). The CDFF was housed in a 37° C. incubator under anaerobic conditions which were maintained by a constant flow of 5% CO2 in N2 at 1 L/h. The CDFF contained 15 removable polytetrafluoroethylene (PTFE) pans on a circular platform that was rotated at a constant speed of three rpm. The biofilms were grown on three enamel blocks (see below) in each PTFE pan using an artificial saliva medium (ASM, 2.5 g/L mucin type II (porcine, gastric, Sigma), 2.0 g/L bacteriological peptone (Oxoid), 2.0 g/L tryptone (Oxoid), 1.0 g/L yeast extract (Oxoid), 0.35 g/L NaCl, 0.2 g/L KCl, 0.2 mg/L vitamin K, 1 mg/L haemin and 0.1 g/L cysteine hydrochloride) at a constant flow rate of 30 mL/h. Prior to inoculation, the CDFF pan surfaces were conditioned for 24 h with ASM at a flow rate of 10 mL/h (McBain et al (2003) J Appl Microbiol. 94(4):655-66). In order to mimic in vivo bacterial growth conditions in the oral cavity with dietary sugar intake and to provide a high cariogenic challenge, a 1% (w/v) sucrose solution in ASM was pumped into the CDFF four times a day at four hourly intervals with a flow rate of 30 mL/h for 10 min.
(§2) Three treatments were applied to the polymicrobial biofilms: 290 ppm fluoride with 220 ppm fluoride as SnF2 and 70 ppm fluoride as NaF (referred to as SnF2), 2% CPP-ACP and 2% CPP-ACP-SnF2. […]
(§3) For each timepoint, DNA was extracted separately from 8-9 enamel blocks using PowerLyzer® PowerSoil® DNA Isolation Kits (MoBio Laboratories) following the manufacturers “Vacuum Protocol” with a Precellys® bead homogeniser (Bertin Technologies). Samples were quantified using a Qubit™ dsDNA HS assay kit (Life Technologies) before being stored at −80° C. […]

[2] = tested on: Fusobacterium nucleatum (ATCC 10953); test: Six species polymicrobial biofilm in constant-depth film fermenter, species composition: F. nucleatum; type: cell-based
Experimental: as §1
(§4) Three treatments were applied to the polymicrobial biofilms: 290 ppm fluoride with 220 ppm fluoride as SnF2 and 70 ppm fluoride as NaF (referred to as SnF2), 2% CPP-ACP and 2% CPP-ACP-SnF2. These treatments were compared with the control in which the test solution was replaced with ASM. Each treatment was applied using two 10 min pulses of the test solution in ASM with a flow rate of 30 mL/h. The first pulse started 30 min prior to the first sucrose pulse of the morning and the second started 3 h 30 min after the final sucrose pulse of the day.
(§5) On day 6, 12 and 19 after inoculation four pans were removed aseptically from the CDFF and replaced with blank sterile pans. Enamel blocks from the pans were removed for bacterial enumeration and transverse microradiography.
Planktonic and loosely attached bacterial cells were firstly removed from the enamel blocks by light washing with 100 μL ASM. To harvest the biofilm cells on each block, the surface was scraped with a sterile scraper with 1 mL of ASM. The biofilm bacterial cells were sedimented by centrifugation (10,000 g, 10 min), the supernatant carefully decanted and the cell pellets stored at −80° C. until required for DNA extraction. The enamel blocks were then used for sectioning and microradiography.
For each timepoint, DNA was extracted separately from 8-9 enamel blocks using PowerLyzer® PowerSoil® DNA Isolation Kits (MoBio Laboratories) following the manufacturers “Vacuum Protocol” with a Precellys® bead homogeniser (Bertin Technologies). Samples were quantified using a Qubit™ dsDNA HS assay kit (Life Technologies) before being stored at −80° C.
The Ion Amplicon Library Preparation Fusion Method (Thermo Fisher Scientific), was adapted for amplification of the V4 region of the 16S rRNA gene. […]

[3] = tested on: Lactobacillus casei (NCDO 161); test: Six species polymicrobial biofilm in constant-depth film fermenter, species composition: L. casei; type: cell-based; conditions: 19 days; mean ± standard deviation; n = 5-21
Experimental: as §1, §4, §5
(§6) Planktonic and loosely attached bacterial cells were firstly removed from the enamel blocks by light washing with 100 μL ASM. […]
as §3

[4] = tested on: Streptococcus mutans Ingbritt; test: Six species polymicrobial biofilm in constant-depth film fermenter, species composition: S. mutans; type: cell-based; conditions: 19 days; mean ± standard deviation; n = 5-21
Experimental: as §1, §2, §3

[5] = tested on: Streptococcus sanguinis (NCTC 7863); test: Six species polymicrobial biofilm in constant-depth film fermenter, species composition: S. sanguinis; type: cell-based
Experimental: as §1, §4, §5, §6, §3

[6] = tested on: Veillonella parvula (ATCC 17745); test: Six species polymicrobial biofilm in constant-depth film fermenter, species composition: V. parvula; type: cell-based; conditions: 19 days; mean ± standard deviation; n = 5-21
Experimental: as §1, §2, §3

[7] = tested on: enamel substratum of the polymicrobial biofilm caries model; test: Enamel subsurface demineralization in the polymicrobial biofilm caries model (transverse microradiography); parameters: species or system human; conditions: for integrated mineral loss ΔZd / lesion depth LD: twice daily 10 min pulses, mean ± SD
Experimental: as §1, §4, §5
Three hundred and sixty extracted human third molars were obtained under University of Melbourne ethics approval (HREC #1237616) and sterilized by exposure to 4.1 kGy of gamma radiation. Enamel blocks were cut from the teeth with approximately 6×3×3 mm dimensions using a water-cooled diamond blade saw (Minitom, Struers) and polished using a RotoPol/RotoForce lapping instrument with 1200, 2400, 4000 grit lapping papers (Struers) and 3 and 1 μm diamond polishing pastes (Struers). The blocks were positioned in custom made CDFF pans at a depth of 100 μm and sealed in place with yellow sticky wax (Kemdent) and sterilized by exposure to 4.1 kGy of gamma radiation.
Transverse microradiography was carried out essentially as described previously [Shen et al 2011]. […] The lesion depth (μm) was determined as the distance to the point at which the mineral content reaches 95% of the sound enamel value. The integrated mineral loss (IML), represented as ΔZd, was calculated by trapezoidal integration as the area between the sound-enamel densitometric profile and that of the demineralized enamel densitometric profile in vol % min·μm.

[8] = tested on: polymicrobial biofilm; test: Biofilm ion analyses (calcium, phosphorous, tin; ICP-MS)
Experimental: To model supragingival plaque six representative oral bacterial species, Streptococcus sanguinis (NCTC 7863), Streptococcus mutans Ingbritt, Actinomyces naeslundii (NCTC 10301), Veillonella parvula (ATCC 17745), Lactobacillus casei (NCDO 161) and Fusobacterium nucleatum (ATCC 10953) (Table 5) were cultured as a polymicrobial biofilm on a human enamel substratum in a constant-depth film fermenter (CDFF; Cardiff University, UK). […] The CDFF contained 15 removable polytetrafluoroethylene (PTFE) pans on a circular platform that was rotated at a constant speed of three rpm. […] These treatments were compared with the control in which the test solution was replaced with ASM. […] The first pulse started 30 min prior to the first sucrose pulse of the morning and the second started 3 h 30 min after the final sucrose pulse of the day. Calcium, phosphorous and tin content of polymicrobial biofilm samples were determined by inductively-coupled mass spectrometry essentially as described previously [[…] et al 2005].

[9] = 19 days, mean ± standard deviation, n = 5-21

SMILES: [F][Sn][F] [SnF2, stannous fluoride, reference compound]
- A. naeslundii as a percentage of total bacteria in the biofilm [1, 9]: 5.54 ± 1.74^abc %
- change in abundance of A. naeslundii relative to the control (in words) ([1]; twice daily treatment, day 19): significantly reduced
- F. nucleatum as a percentage of total bacteria in the biofilm [2, 9]: 0.02 ± 0.01^cd %
- change in abundance of F. nucleatum after treatment relative to the control (increase) ([2]; day 19, FIG. 5B): −2%
- L. casei as a percentage of total bacteria in the biofilm [3]: 10.67 ± 6.92^cd %
- S. mutans as a percentage of total bacteria in the biofilm [4]: 59.82 ± 4.59^a %
- S. sanguinis as a percentage of total bacteria in the biofilm [5, 9]: 17.47 ± 3.44^a %
- change in abundance of S. sanguinis relative to the control (in words) ([5]; twice daily treatment, day 19): significantly increased
- V. parvula as a percentage of total bacteria in the biofilm [6]: 6.50 ± 1.48^b %
- integrated mineral loss ΔZd ([7]; Day 6): 636.7 ± 129.4 vol % min · μm
- lesion depth LD ([7]; Day 6): 17.6 ± 1.2^c μm
- integrated mineral loss ΔZd ([7]; Day 12): 1352.1 ± 147.3^bde vol % min · μm
- lesion depth LD ([7]; Day 12): 37.1 ± 5.3^bdf μm
- integrated mineral loss ΔZd ([7]; Day 19): 2096.3 ± 66.7^ae vol % min · μm
- lesion depth LD ([7]; Day 19): 46.1 ± 4.7^be μm
- rate of demineralization ([7]; between day 6 and day 19): 112.1 vol % min·μm/day
- reduction in rate of demineralization relative to control ([7]; between day 6 and day 19, twice daily exposure): 50.2% and 50%
- increase in calcium in the biofilm relative to the control ([8]; ICP-MS): two-fold
- increase in phosphorous in the biofilm relative to the control ([8]; ICP-MS): two-fold
- peak stannous concentration in the biofilm ([8]; ICP-MS): 1.0 nmol/mg biofilm wet weight
- Sn accumulated in the polymicrobial biofilms, concentration ([8]; during SnF2 treatment): ≤ 119 ppm
